According to US10669242B2 (priority 2016, dated 2020):

How the values were obtained:
[1] = test system: C. difficile infection (CDI); settings: patients; Louie et al. 2011; cited from earlier work
[2] = test system: C. difficile toxin (TcdA and TcdB, ~1:1); experiment: Murine C. difficile toxin model (intrarectal toxin); type: in vivo, C57BL/6 mice; settings: for IL-1β (% Inhibition) / MPO (% Inhibition): murine C. difficile toxin model, PO, 50 mg/kg body weight; for IL-1β in colon tissue / MPO in colon tissue / toxin effect on colon length: oral (PO), 50 mg/kg, intrarectal toxin 12.5 μg
Description: In the following studies, we established a murine C. difficile toxin model with modifications from a published murine model (Hirota, Iablokov et al. 2012). Details of the murine C. difficile toxin model are described in the “Experimental Protocols” (below). C. difficile toxins were isolated from a culture of the C. difficile strain VPI 10463. C. difficile toxins consisted of TcdA and TcdB (˜1:1 ratio of TcdA:TcdB). Respective TcdA and TcdB concentrations were determined by enzyme-linked immunosorbant assay (ELISA). In our mouse model, C. difficile toxins were administered intrarectally to evaluate their pathological effects.
We administered C. difficile toxin (12.5 μg/mouse) via intrarectal instillation into female C57BL/6 mice. Four (4) animals were used in each group. Four (4) hours after the toxin administration, the mice were euthanized. The colons were excised from the animals and washed with phosphate buffered saline (PBS). The colon lengths were measured. Excised colon tissues were stored at −70° C. for chemical analysis of interleukin-1β(IL-1β) and myeloperosidase (MPO) in tissues, which are the hallmarks of colon inflammation. Excised colon tissues were also stored at room temperature in 10% neutral buffered formalin for histopathological analysis.
Using the murine C. difficile toxin model (Example 61), we evaluated the efficacy of Example 6a in reducing the C. difficile toxin activity. In this study, the isolated toxin (12.5 μg) was diluted in 50 μl of PBS and mixed with a 50 μl suspension of Example 6a (10 mg/mL) in 1% carboxymethyl cellulose and 0.5% Tween 80 to achieve a fixed dose of […] of Example 6a (0.5 mg in mice weighing ˜20 g) and C. difficile toxin (12.5 μg). Three (3) animals were used in each group.
In this study, we evaluated the efficacy of Example 6a via different routes of administration (i.e., oral (PO) and intraperitoneal (IP) administrations) in the same murine C. difficile toxin model (Example 61). In both PO and IP dosages, Example 6a was prepared as 5 mg/mL solutions in 20% PEG-400, 0.4% carboxymethyl cellulose and 0.2% Tween 80. Example 6a was administered at a final dose of 50 mg/kg body weight. Three (3) mice were used in each group (i.e., vehicle (control), PO and IP).
Using the murine C. difficile toxin model (Example 63), we further tested the efficacy of four (4) additional compounds (i.e., Example 6a, Example 5ae, Example 4cl, and Example 5al) via PO administration. All of the compounds were dosed orally at 50 mg/kg body weight. In three separate studies a total of three (3) to fourteen (14) mice were used in each group.
We evaluated the efficacy of additional compounds in reducing C. difficile toxicity. Using the PO administration (Example 63), we further tested 30 compounds (Table 34). All of the compounds were dosed orally at 50 mg/kg body weight. Three (3) to fourteen (14) animals were used for each compound. % inhibition was determined by the following formula: […]
An overnight culture of C. difficile strain VPI 10463 (American Type Culture Collection) was grown at 37° C. in Brain-Heart Infusion (BHI) broth using the GasPak EZ Anaerobe Pouch System (Becton Dickinson). 2 mL of the culture was added to 28 mL of phosphate buffered saline (PBS) in a gamma-irradiated, 10,000 molecular weight cut-off, 30-70 ml Slide-A-Lyzer G2 dialysis cassette (Pierce). This cassette was submerged in 1 L of BHI broth in a 2 L beaker and incubated under anaerobic conditions for 5 days at 37° C. The culture was then transferred to a 50 mL conical tube and the cassette was washed with 10 mL of PBS. The combined culture and wash were centrifuged at 2,000 g for 20 minutes to pellet the bacteria and the supernatant was filtered through a 0.2 μm syringe filter. The filtrate was then applied to a 20 mL 150 K molecular weight cut-off concentration column (Pierce) and centrifuged at 2,000 g for 15 minutes. Concentrated supernatant was stored at 4° C. […]

[3] = molecular target: T1, C. difficile full-length toxin TcdB (Clostridioides difficile, UniProt P18177); experiment: cell-based
T1 construct: C. difficile full-length toxins (TcdA or TcdB); purchased EMD Millipore 616377
T1 sequence (P18177 2-2366 limits assumed): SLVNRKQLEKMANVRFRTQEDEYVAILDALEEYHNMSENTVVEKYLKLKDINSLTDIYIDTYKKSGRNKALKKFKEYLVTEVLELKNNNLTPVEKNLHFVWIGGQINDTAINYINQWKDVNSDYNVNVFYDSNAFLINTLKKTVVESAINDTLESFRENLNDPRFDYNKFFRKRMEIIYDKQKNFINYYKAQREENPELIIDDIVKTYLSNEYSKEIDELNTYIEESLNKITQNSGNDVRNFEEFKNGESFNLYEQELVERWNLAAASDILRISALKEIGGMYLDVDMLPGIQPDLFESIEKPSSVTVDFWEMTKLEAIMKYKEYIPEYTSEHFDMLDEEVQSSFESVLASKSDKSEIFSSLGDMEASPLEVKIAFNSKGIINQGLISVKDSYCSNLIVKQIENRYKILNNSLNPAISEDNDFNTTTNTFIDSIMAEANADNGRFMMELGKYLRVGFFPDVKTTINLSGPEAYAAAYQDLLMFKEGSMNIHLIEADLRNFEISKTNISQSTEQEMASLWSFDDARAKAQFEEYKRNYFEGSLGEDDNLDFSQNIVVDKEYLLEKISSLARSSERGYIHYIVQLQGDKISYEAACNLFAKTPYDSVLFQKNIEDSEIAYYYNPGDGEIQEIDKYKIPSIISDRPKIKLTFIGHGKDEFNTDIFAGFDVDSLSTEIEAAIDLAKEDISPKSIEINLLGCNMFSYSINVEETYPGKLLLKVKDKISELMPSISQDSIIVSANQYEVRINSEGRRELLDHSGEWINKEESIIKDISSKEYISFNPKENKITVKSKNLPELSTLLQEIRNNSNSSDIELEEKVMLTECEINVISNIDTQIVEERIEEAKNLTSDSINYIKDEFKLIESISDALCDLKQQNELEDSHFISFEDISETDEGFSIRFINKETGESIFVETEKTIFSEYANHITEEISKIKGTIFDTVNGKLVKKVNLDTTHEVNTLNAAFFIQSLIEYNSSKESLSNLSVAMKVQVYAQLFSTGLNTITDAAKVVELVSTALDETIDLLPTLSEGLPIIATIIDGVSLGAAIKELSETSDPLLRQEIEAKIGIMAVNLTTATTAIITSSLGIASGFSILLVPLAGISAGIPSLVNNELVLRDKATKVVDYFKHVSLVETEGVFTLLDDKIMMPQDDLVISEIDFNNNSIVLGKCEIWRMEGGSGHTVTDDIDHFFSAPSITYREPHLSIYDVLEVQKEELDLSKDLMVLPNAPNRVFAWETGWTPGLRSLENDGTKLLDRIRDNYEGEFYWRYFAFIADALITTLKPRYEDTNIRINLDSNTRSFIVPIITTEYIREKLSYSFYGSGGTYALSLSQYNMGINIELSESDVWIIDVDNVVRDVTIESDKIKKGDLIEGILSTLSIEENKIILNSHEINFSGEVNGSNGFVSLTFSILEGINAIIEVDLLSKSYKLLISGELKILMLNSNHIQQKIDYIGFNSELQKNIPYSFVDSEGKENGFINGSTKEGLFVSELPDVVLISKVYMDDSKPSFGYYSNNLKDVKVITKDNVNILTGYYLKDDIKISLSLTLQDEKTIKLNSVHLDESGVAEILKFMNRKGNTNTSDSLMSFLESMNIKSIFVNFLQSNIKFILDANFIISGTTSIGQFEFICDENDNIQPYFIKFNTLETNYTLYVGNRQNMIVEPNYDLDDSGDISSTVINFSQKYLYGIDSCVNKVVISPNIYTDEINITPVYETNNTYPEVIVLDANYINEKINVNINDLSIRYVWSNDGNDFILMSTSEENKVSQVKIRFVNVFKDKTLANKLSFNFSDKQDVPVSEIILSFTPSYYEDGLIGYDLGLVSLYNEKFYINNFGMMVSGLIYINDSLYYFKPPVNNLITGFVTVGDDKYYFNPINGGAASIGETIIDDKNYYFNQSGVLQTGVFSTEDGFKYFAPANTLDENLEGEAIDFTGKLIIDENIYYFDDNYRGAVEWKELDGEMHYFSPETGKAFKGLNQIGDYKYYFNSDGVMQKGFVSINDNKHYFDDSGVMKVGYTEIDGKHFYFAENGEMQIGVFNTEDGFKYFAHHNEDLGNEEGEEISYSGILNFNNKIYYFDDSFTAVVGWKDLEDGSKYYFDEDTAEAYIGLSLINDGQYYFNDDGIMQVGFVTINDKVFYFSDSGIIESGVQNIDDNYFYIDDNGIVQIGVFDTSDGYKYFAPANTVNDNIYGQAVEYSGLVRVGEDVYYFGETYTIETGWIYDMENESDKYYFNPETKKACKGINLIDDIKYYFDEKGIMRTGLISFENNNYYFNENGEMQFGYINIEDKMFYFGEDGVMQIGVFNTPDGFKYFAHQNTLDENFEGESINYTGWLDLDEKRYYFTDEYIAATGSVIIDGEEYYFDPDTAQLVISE

[4] = test system: C. difficile strain VPI 10463; experiment: Acute murine C. difficile infection model; type: in vivo, C57BL/6 mice; settings: PO; 52 hours after infection
Excerpt: In a hospital environment, C. difficile infection occurs when the patient receives an antibiotic treatment that disrupts the normal gut microflora and is exposed to C. difficile spores. The patient often fails to mount a protective immune response against the acute C. difficile infection. (Rupnik, Wilcox et al. 2009). To study the acute C. difficile infection, we established a murine C. difficile infection model. Details of the infection model are provided in the “Experimental Protocol” (below).
In brief, female C57BL/6 mice were administered the following antibiotics: colistin (0.042 units/mL), gentamicin (0.035 mg/mL), kanamycin (0.4 mg/mL), metronidazole (0.215 mg/mL) and vancomycin (0.045 mg/mL) in drinking water for 3 days. The administered antibiotics disrupted the normal gut microflora in mice. On the 4th day, mice received oral administration of 0.5 mL volume containing ˜100 spores produced from a virulent clinical C. difficile isolate (strain VPI 10463). In this acute murine C. difficile infection model, we observed a similar time course of infection when compared to that of clinical patients.
Using the developed murine C. difficile infection model (Example 67), we evaluated our test compounds for their efficacy in reducing weight loss and gut inflammation caused by the acute C. difficile infection. We tested the efficacy of Example 6a and Example 5ae and used eight (8) animals in each group.
We further tested the efficacy of the Example 6a, Example 5ae, Example 4cl, and Example 5al compounds by PO administration. Vancomycin was used as a positive control. Three (3) experiments were performed utilizing a total of five (5) to sixteen (16) animals in each group.
C. difficile strain VPI 10463 was grown for four (4) days in 10 ml of BHI in a Bactron anaerobic workstation (Shel Lab). The culture was centrifuged at 2,700 g for 10 minutes. The bacterial pellet was washed with 10 mL of PBS and the centrifugation was repeated. The pellet was then re-suspended in 10 mL of PBS, incubated at 56° C. for 10 minutes, and then was frozen at −20° C. until used. Titers of spore stocks were determined by serial dilution and plating onto BHI and with 1% taurocholate and counting of colonies after incubation for 24 hours at 37° C. using the GasPak EZ Anaerobe Pouch System.
We utilized an established C. difficile murine infection model (Chen, Katchar et al. 2008). To render them susceptible to infection, female C57BL/6 mice (˜10 weeks old and weighing ˜20 g) were administered the following antibiotics (Sigma Aldrich) in drinking water for 3 days (Days −6 to −3): colistin (0.042 units/mL), gentamicin (0.035 mg/mL), kanamycin (0.4 mg/mL), metronidazole (0.215 mg/mL) and vancomycin (0.045 mg/mL). Based upon an expected water consumption of 100 mL/kg/day, the approximate doses of these antibiotics will be as follows: colistin (4.2 units/kg/day), gentamicin (3.5 mg/kg/day), kanamycin (40 mg/kg/day), metronidazole (21.5 mg/kg/day) and vancomycin (4.5 mg/kg/day). The animals were provided with regular drinking water for two days (Day −2 and Day −1), and the next day (Day 0) they were administered clindamycin phosphate (1 mg/mL solution in PBS) at 10 mL/kg by intraperitoneal injection, for a final dose of 10 mg/kg body weight. The following day (Day 1), they were orally gavaged with ˜100 spores in a 0.5 ml volume.
Compounds were administered beginning ˜8 hours after infection, and the animals were dosed twice per day for two days (Days 2-3) with a total of four doses. Compounds were prepared as 5 mg/mL suspensions in 20% PEG-400, 0.4% carboxymethyl cellulose and 0.2% Tween 80 and administered at a dose of 10 mL/kg, for a final dose of 50 mg/kg body weight.
Animals were observed and weighed two (2) to (3) times daily. Animals that were obviously moribund or had lost >20% of their initial body weight were euthanized. Sub-groups of animals were euthanized four (4) hours after the final compound dose (52 hours after infection). […]

[5] = molecular target: T2, recombinant glucosyltransferase domain of C. difficile Toxin B/TcdB (Clostridioides difficile, UniProt P18177); experiment: biochemical
T2 construct: 6-His (C); purchased R&D Systems 6246-GT

[6] = molecular target: T3, C. difficile full-length toxin TcdA (Clostridioides difficile, UniProt P16154); experiment: cell-based
T3 construct: C. difficile full-length toxins (TcdA or TcdB); purchased Enzo Life Sciences BML-G140-0050
T3 sequence (P16154 whole entry, looked up): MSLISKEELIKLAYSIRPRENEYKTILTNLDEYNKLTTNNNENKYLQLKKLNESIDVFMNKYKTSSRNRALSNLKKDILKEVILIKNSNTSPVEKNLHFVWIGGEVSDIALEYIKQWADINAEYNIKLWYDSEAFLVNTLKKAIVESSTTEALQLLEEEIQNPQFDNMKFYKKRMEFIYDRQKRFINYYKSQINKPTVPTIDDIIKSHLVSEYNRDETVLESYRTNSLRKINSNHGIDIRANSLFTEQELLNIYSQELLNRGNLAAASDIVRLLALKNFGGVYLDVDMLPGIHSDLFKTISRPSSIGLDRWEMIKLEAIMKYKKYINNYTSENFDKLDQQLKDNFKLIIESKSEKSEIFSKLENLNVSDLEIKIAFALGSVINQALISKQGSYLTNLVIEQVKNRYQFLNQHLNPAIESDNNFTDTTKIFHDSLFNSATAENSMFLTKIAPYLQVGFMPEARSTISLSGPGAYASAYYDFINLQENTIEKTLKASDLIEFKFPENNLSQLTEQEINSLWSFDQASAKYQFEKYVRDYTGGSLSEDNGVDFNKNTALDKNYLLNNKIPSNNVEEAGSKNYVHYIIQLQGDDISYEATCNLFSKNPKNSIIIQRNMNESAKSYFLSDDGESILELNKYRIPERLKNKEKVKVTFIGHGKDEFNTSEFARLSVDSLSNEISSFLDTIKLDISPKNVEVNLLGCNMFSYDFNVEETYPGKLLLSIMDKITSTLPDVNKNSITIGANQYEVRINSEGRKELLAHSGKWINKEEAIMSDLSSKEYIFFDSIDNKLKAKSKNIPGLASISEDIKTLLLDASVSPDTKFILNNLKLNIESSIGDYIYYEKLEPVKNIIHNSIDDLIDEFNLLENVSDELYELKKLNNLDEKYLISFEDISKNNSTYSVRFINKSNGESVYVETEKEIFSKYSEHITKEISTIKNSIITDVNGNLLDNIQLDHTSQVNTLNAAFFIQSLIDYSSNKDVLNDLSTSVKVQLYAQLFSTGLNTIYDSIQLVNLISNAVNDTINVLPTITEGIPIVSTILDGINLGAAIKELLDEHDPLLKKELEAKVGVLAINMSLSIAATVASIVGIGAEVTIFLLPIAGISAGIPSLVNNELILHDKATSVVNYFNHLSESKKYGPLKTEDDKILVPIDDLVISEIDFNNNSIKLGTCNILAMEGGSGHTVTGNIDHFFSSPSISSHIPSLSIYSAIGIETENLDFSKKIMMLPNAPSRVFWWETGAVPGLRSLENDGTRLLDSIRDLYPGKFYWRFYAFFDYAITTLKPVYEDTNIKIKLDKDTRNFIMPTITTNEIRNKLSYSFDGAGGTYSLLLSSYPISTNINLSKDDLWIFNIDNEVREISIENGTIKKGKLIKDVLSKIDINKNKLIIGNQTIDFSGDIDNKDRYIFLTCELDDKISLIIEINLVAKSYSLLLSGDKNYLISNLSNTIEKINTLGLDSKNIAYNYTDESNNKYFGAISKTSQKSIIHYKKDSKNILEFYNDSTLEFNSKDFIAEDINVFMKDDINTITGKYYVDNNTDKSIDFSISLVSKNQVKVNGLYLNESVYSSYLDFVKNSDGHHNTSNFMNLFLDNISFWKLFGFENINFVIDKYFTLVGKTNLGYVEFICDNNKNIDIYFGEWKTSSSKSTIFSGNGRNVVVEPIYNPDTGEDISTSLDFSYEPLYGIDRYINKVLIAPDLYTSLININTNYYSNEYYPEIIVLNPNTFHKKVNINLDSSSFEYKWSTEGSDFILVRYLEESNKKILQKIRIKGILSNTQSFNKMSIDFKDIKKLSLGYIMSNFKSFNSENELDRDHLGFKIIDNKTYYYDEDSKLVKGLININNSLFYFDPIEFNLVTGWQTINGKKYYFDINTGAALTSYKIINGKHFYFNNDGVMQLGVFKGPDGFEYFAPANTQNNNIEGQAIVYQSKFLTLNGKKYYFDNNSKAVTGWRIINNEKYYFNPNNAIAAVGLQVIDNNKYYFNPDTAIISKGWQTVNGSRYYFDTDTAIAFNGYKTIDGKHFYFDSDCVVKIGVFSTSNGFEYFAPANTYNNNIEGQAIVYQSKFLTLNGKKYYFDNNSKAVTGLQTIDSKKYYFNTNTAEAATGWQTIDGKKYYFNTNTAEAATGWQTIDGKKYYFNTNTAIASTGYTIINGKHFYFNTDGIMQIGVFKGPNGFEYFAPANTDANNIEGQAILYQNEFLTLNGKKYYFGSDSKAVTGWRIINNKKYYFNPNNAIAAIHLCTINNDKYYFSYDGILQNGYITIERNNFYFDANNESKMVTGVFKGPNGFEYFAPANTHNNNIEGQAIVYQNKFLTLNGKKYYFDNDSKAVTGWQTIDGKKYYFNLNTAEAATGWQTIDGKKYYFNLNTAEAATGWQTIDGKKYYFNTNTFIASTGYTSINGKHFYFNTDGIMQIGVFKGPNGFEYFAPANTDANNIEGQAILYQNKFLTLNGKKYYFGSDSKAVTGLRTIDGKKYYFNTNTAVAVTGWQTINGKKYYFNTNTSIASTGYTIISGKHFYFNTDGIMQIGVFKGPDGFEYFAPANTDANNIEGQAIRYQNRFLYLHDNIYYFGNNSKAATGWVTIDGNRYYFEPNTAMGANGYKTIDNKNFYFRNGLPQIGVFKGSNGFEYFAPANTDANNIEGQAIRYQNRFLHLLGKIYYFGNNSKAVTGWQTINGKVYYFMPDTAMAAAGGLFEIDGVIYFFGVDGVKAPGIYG

C. difficile strain 630 = type: in vivo, Golden Syrian hamsters; settings: PO twice per day; Example 5ae 50 mg/kg 7 days; vancomycin 5 mg/kg 5 days
C. difficile = type: in vivo, C57/BL6 mice

Q: For `CCc1c(Cl)c(O)c(Cl)c(O)c1C(=O)O[C@H]1[C@H](O)[C@H](OC)[C@H](OC/C2=C\C=C\C[C@H](O)/C(C)=C/[C@H](CC)[C@@H](O[C@@H]3OC(C)(C)[C@@H](OC(=O)C(C)C)[C@H](O)[C@@H]3O)/C(C)=C/C(C)=C/C[C@@H]([C@@H](C)O)OC2=O)O[C@@H]1C` [fidaxomicin], which CDI recurrence [1] is on record?
A: 8%

Q: With `COc1ccc(NC(=O)c2ccc(CN3C(=O)c4ccc(Cl)cc4NC(=O)[C@H]3Cc3ccccn3)cc2C)nc1` [Example 4cl, (R)-4-((8-Chloro-2,5-dioxo-3-(pyridin-2-ylmethyl)-2,3-dihydro-1H-benzo[e][1,4]diazepin-4(5H)-yl)methyl)-N-(5-methoxypyridin-2-yl)-2-methylbenzamide] as the molecule, how does the “IL-1β (% Inhibition)” value [2] read?
A: 100%

Q: And the “MPO (% Inhibition)” value [2]?
A: 100%

Q: What about the “IL-1β in colon tissue” value [2] of the same molecule?
A: reduced the levels of IL-1β

Q: What about the “MPO in colon tissue” value [2] of the same molecule?
A: reduced

Q: What about the “toxin effect on colon length” value [2] of the same molecule?
A: reduced the C. difficile toxin-mediated effects on colon length

Q: And the IC50 [3]?
A: < 100 nM

Q: And the “toxin effect on colon length” value [4]?
A: significantly reduced the toxin effect on colon length

Q: And the IC50 [5]?
A: < 100 nM

Q: And the IC50 [6]?
A: 100 to 999 nM

Q: Which body weight loss (C. difficile strain 630) does the source give for `CN[C@H](CC(C)C)C(=O)N[C@H]1C(=O)N[C@@H](CC(N)=O)C(=O)N[C@H]2C(=O)N[C@H]3C(=O)N[C@H](C(=O)N[C@H](C(=O)O)c4cc(O)cc(O)c4-c4cc3ccc4O)[C@H](O)c3ccc(c(Cl)c3)Oc3cc2cc(c3O[C@@H]2O[C@H](CO)[C@@H](O)[C@H](O)[C@H]2O[C@H]2C[C@](C)(N)[C@H](O)[C@H](C)O2)Oc2ccc(cc2Cl)[C@H]1O` [vancomycin, reference compound] here?
A: prevented any significant weight loss

Q: And the “weight loss, days 8-9 after infection” value (C. difficile; relapse model, PO, vancomycin 20 mg/kg once per day for five days)?
A: significant weight loss

Q: What about the “weight loss during treatment (Days 1-5)” value (C. difficile; vancomycin 20 mg/kg oral, once per day for five days) of the same molecule?
A: prevented weight loss

Q: And the CDI recurrence [1]?
A: 25%

Q: With `Cc1cc(CN2C(=O)c3ccc(Cl)cc3NC(=O)[C@H]2Cc2ccccn2)ccc1C(=O)Nc1ccc(C(F)(F)F)cn1` [Example 5al, (R)-4-((8-Chloro-2,5-dioxo-3-(pyridin-2-ylmethyl)-2,3-dihydro-1H-benzo[e][1,4]diazepin-4(5H)-yl)methyl)-2-methyl-N-(5-(trifluoromethyl)pyridin-2-yl)benzamide] as the molecule, how does the “IL-1β (% Inhibition)” value [2] read?
A: 81%

Q: And the “MPO (% Inhibition)” value [2]?
A: 91%

Q: And the “IL-1β in colon tissue” value [2]?
A: reduced the levels of IL-1β

Q: And the “MPO in colon tissue” value [2]?
A: reduced

Q: And the “toxin effect on colon length” value [2]?
A: reduced the C. difficile toxin-mediated effects on colon length

Q: What about the IC50 [3] of the same molecule?
A: < 100 nM

Q: And the “IL-1β in colon tissues” value [4]?
A: reduced the level of IL-1β

Q: And the “MPO in colon tissues” value [4]?
A: reduced

Q: And the “toxin effect on colon length” value [4]?
A: significantly reduced the toxin effect on colon length

Q: And the IC50 [5]?
A: < 100 nM

Q: And the IC50 [6]?
A: 1000 to 10000 nM

Q: Which “IL-1β (% Inhibition)” value [2] does the source give for `COc1cnc(NC(=O)c2ccc(CN3C(=O)c4ccc(Cl)cc4NC(=O)[C@H]3Cc3ccccn3)cc2OC)nc1` [Example 5an, (R)-4-((8-Chloro-2,5-dioxo-3-(pyridin-2-ylmethyl)-2,3-dihydro-1H-benzo[e][1,4]diazepin-4(5H)-yl)methyl)-2-methoxy-N-(5-methoxypyrimidin-2-yl)benzamide] here?
A: 87%

Q: What about the “MPO (% Inhibition)” value [2] of the same molecule?
A: 63%

Q: What about the IC50 [3] of the same molecule?
A: 100 to 999 nM

Q: And the IC50 [5]?
A: < 100 nM

Q: What about the IC50 [6] of the same molecule?
A: 1000 to 10000 nM
